Columns and labels:
aromatase = target: T1, aromatase (Homo sapiens, UniProt P11511); test: Aromatase inhibiting capacity in JEG-3 cells (3H-17β-estradiol formation from 3H-androstenedione); format: cell-based; conditions: 4 h incubation, FIG. 1
T1 construct: 800 μl cell suspension (1 million cells); endogenous in cells; host or cells: JEG-3 human choriocarcinoma cells
T1 sequence (P11511 1-503): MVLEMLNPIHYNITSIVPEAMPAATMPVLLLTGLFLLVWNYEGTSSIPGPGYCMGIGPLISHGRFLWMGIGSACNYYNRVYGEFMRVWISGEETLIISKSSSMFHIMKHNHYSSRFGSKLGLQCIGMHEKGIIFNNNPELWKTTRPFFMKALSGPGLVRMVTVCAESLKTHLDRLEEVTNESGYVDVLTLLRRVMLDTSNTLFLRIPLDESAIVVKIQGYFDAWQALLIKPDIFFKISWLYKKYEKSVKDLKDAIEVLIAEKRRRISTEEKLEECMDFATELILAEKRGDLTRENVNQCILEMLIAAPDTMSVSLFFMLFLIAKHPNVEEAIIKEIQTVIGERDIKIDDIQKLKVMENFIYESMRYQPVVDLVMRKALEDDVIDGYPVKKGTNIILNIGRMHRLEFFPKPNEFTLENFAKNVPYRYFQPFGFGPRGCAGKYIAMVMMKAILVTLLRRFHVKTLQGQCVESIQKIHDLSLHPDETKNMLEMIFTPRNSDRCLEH
Description: The effects of HMR and structurally related lignans (enterolactone, enterodiol and 7-hydroxyenterolactone) were studied on formation of ^3H-17β-estradiol from ^3H-andostenedione in JEG-3 cells, human choriocarcinoma cell line. […] Cells were maintained in DMEM containing 10% fetal calf serum (FCS). The incubation mixture contained 50 μl ^3H-androst-4-ene, 3,17-dione (0.5 nM), 50 μl unlabelled androstenedione (0.5 nM), 100 μl test compounds (10 mM) and 800 μl cell suspension (1 million cells). After the incubation for 4 h, unlabelled carriers (androstenedione, testosterone, 17β-estradiol and estrone) were added. The steroids were extracted twice with 3.0 ml dichloromethane. […] The column system consisted of a guard column followed by a C18 150×3.9 mm ID analytical column (Technopak 10 C18 HPLC Technology; Wellington House, Cheshire, UK). The mobile phase was acetonitrile/water (35/65) and the flow rate was 1.2 ml/min. For in-line detection of the radioactive metabolites, the eluent of the HPCL column was continuously mixed with liquid scintillant and then monitored with in-line radioactivity detector.

[1] = Superoxide anion scavenging (xanthine-xanthine oxidase system, chemiluminescence); format: biochemical; conditions: read-out: Superoxide anion scavenging, IC-50
Description: Superoxide anion scavenging method was based on the superoxide anion produced in controlled conditions by xanthine-xanthine oxidase system and detection of the generated reactive oxygen species by luminometer (Ahotupa et al., 1997). The ability of test compounds to decrease the chemiluminescence was evaluated. IC-50 concentration (concentration which prevented the chemiluminescence by 50%) was calculated.

[2] = tested on: DMBA-induced mammary gland tumors; test: Antitumor activity in rat DMBA-induced mammary cancer model; format: in vivo
Description: Antitumor activity of HMR in rat mammary cancer was studied as described earlier ([…] et al. 1986). Fifty-day-old female Sprague-Dawley rats were given 12.0 mg DMBA (dimethylbentz[a]anthracene) by […]. After approximately 6 weeks palpable tumors could be detected, whereafter the width (w) and the length (1) of the tumors were measured once a week to determine the tumor volumes according to a formula V=(πw^2 l)/12. The rats were also weighed once a week. The rats were allocated in 3 different groups so that the total number of tumors in the beginning of the experiment was similar in each group: (1) Control group 8 animals, (2) HMR 3.0 mg/kg 7 animals, and (3) HMR 15.0 mg/kg 7 animals, one of which had to be killed before the end of the experiment. HMR was given per os starting 9 weeks after the DMBA-induction, i.e. 3 weeks after palpable tumors appeared, and was given daily for 7.5 weeks. At the end of the experiment the tumors were classified in groups according to their growth pattern: 1. Growing tumors (PD=progressive disease); 2. Non-growing, stabilized tumors (SD=stabilized disease, no change in tumor volume or regression less than 75%; 3. Regressing tumors (PR=partial response, regression of tumor volume more than 75%); 4. Disappeared tumors (CR=complete response, no palpable tumor).

MCF-7 cells = test: Estrogenic and antiestrogenic activity in MCF-7 cell proliferation assay; format: cell-based, human; design: Estrogenic activity, cell proliferation: dose or concentration left out as unconfirmed; conditions: 5 to 7 days, FIG. 2
Description: The MCF-7 cell line (human breast cancer cells) stock cultures were grown in phenol red free RPMI medium supplemented with 5% FCS, 100 U/ml penicillin and 100 μg/ml streptomycin, 10 μg/ml insulin and 1 nM 17β-estradiol in T-75 cell culture bottles. The medium was replaced with fresh ones three times per week. The stock cultures were harvested by trypsinization and suspended in 10 ml phenol red free versene solution and cenitifuged for 5 min 800 rpm. The cell pellet was carefully resuspended into RPMI medium supplemented with 5% dextran charcoal stripped FCS (dcFCS) and seeded on 6 well plates 50 000 cells/3.0 ml medium/well. On the second day of culture the medium was changed and test compounds were added. To test the estrogenicity of the lignan compounds, they were diluted in ethanol and added to cell cultures in final concentration of […]. In each proliferation assay 1.0 nM 17β-estradiol solution in ethanol was used as a positive control for estrogenic response. Equal amounts of ethanol were added to control wells. To test the antiestrogenicity both 17β-estradiol and lignan solutions were added to cell cultures. The cells were cultured for 5 to 7 days in the presence of test compounds, and the medium was changed every second day. Cell proliferation was quantified by counting the released nuclei with Coulter counter.

- Inhibition of aromatization (3H-17β-estradiol formation from 3H-androstenedione) (aromatase): no inhibitory effects
- IC50 [1]: 5.6 µM
Structure (SMILES): COc1cc(CC2C(=O)OCC2C(O)c2ccc(O)c(OC)c2)ccc1O (stereo not drawn) [HMR, hydroxymatairesinol]
- Dose-dependency of antitumor action ([2]; HMR 3.0 versus 15.0 mg/kg): no clear dose-dependency
- Antitumor effect (growing versus stable, regressing and disappeared tumors) ([2]; female Sprague-Dawley rats, HMR 3.0 and 15.0 mg/kg per os daily for 7.5 weeks, FIG. 4): statistically very significant
- Estrogenic activity, cell proliferation (MCF-7 cells; MCF-7, lignan alone): very weak, not statistically significant
- Antiestrogenic activity, cell proliferation (MCF-7 cells; MCF-7, lignan together with 17β-estradiol): very weak, not statistically significant

Source: US7005447B2, “Food product comprising hydroxymatairesinol” (Hormos Nutraceutical Oy Ltd., priority 1999, dated 2006)
